Laboratory results from PMC6738068 (British Journal of Cancer, 2019).
Entries after “also recorded” stand apart in the source; their conditions may differ. Like-named read-outs stand apart in the source and are kept apart here.

Assays:
TrkA = tested on: TrkA; design: method as in printed; conditions: preclinical, ref not given; cited from earlier work
[1] = tested on: patients with advanced solid tumours
Text: A standard 3+3 dose-escalation scheme was used to identify the maximally tolerated dose (MTD) and RP2D.
Patients without evidence of high-grade neutropenia during this run-in period resumed daily dosing in standard 28-day cycles.
Select haematologic DLT included febrile neutropenia grade ≥3 and/or neutropenia grade ≥3 associated with infection or asymptomatic neutropenia grade ≥3 that persisted for >7 days. Use of haematopoietic growth factors (e.g. G-CSF, erythropoietin) in Cycle 1 was not permitted unless a DLT occurred.
The RP2D was based on the MTD established during dose escalation together with a comprehensive review of toxicities, PKs, and efficacy outcomes.
Dose escalations occurred in 100% increments for individual dosing cohorts up to 32 mg/day. Subsequent dose escalations continued in increments not exceeding 50%, depending on toxicities experienced, and with the approval of local Investigators and the external Medical Monitor.
Hematologic DLTs were defined as drug-related anemia grade ≥3; febrile neutropenia grade ≥3, and/or neutropenia grade ≥3 associated with infection; asymptomatic neutropenia grade ≥3 that persisted for >7 days; asymptomatic thrombocytopenia grade ≥3 that persisted for >7 days following treatment interruption; grade 3 thrombocytopenia associated with bleeding; or grade 4 thrombocytopenia.
Dose escalation decisions were made following the completion of Cycle 1 for all patients enrolled in a given dose level, taking into consideration adverse events (AE) and pharmacokinetic results.

CYP3A4 = tested on: CYP3A4; design: method as in printed; conditions: preclinical testing, ref not given; cited from earlier work
[2] = tested on: cytochrome P450 (CYP) enzyme 1A2; design: method as in printed; conditions: preclinical testing, ref not given; cited from earlier work
P-glycoprotein = tested on: P-glycoprotein; design: method as in printed; conditions: preclinical testing, ref not given; cited from earlier work
PLK2 = tested on: PLK2; design: method as in printed; conditions: preclinical, ref not given; cited from earlier work
FGFR2 = tested on: FGFR2; design: method as in printed; conditions: preclinical, ref not given; cited from earlier work
Ros = tested on: Ros; design: method as in printed; conditions: preclinical, ref not given; cited from earlier work
AurB = tested on: AurB; design: method as in printed; conditions: preclinical, ref not given; cited from earlier work
[3] = oral daily 72 mg (n = 6; one patient removed, not DLT evaluable)

## COc1ccc2c(c1)[C@]1(C[C@H]1c1ccc3c(/C=C/c4ccc(CN5C[C@@H](C)O[C@@H](C)C5)cc4)n[nH]c3c1)C(=O)N2 [CFI-400945]
TrkA
  IC50: < 100 nM
[1]; 64 mg dose escalation, 6 patients
  DLT events: no DLT events
[1]; 64 mg dose level, escalation plus expansion
  patients with a DLT event: 1/15
[1]; 64 mg expansion, Cycle 1 Day 15
  DLT event in dose expansion: One patient experienced grade 4 febrile neutropenia
[1]; 64 mg, continuous daily dosing
  tolerability: well tolerated; also recorded: tolerable
[1]; 72 mg (7 total), Cycle 1
  DLT events: Two patients experienced DLT events
[1]; 96 mg daily
  tolerability: intolerable
[1]; 96 mg, Cycle 1
  DLT events: one DLT (grade 3 febrile neutropenia)
[1]; 3-96 mg (n = 48)
  Total number of patients with DLT, all dosages: 4
[1]; all dose levels (n = 48)
  DLT description, grade 3: Neutropenia, febrile neutropenia
  DLT description, grade 4: Febrile neutropenia, lipase elevated
[1]; continuous daily oral dosing
  recommended phase 2 dose (RP2D): 64 mg
[1]; continuous dosing schedule
  principal DLT: Neutropenia
[1]; oral daily 3 mg (n = 3)
  Total number of patients with DLT at each dosage: 0
  patients with DLT, grade 1: 0
  patients with DLT, grade 2: 0
  patients with DLT, grade 3, number (%): 0
  patients with DLT, grade 4, number (%): 0
  patients with DLT, grade 5: 0
[1]; oral daily 6 mg (n = 3)
  Total number of patients with DLT at each dosage: 0
  patients with DLT, grade 1: 0
  patients with DLT, grade 2: 0
  patients with DLT, grade 3, number (%): 0
  patients with DLT, grade 4, number (%): 0
  patients with DLT, grade 5: 0
[1]; oral daily 11 mg (n = 3)
  Total number of patients with DLT at each dosage: 0
  patients with DLT, grade 1: 0
  patients with DLT, grade 2: 0
  patients with DLT, grade 3, number (%): 0
  patients with DLT, grade 4, number (%): 0
  patients with DLT, grade 5: 0
[1]; oral daily 16 mg (n = 3)
  Total number of patients with DLT at each dosage: 0
  patients with DLT, grade 1: 0
  patients with DLT, grade 2: 0
  patients with DLT, grade 3, number (%): 0
  patients with DLT, grade 4, number (%): 0
  patients with DLT, grade 5: 0
[1]; oral daily 24 mg (n = 3)
  Total number of patients with DLT at each dosage: 0
  patients with DLT, grade 1: 0
  patients with DLT, grade 2: 0
  patients with DLT, grade 3, number (%): 0
  patients with DLT, grade 4, number (%): 0
  patients with DLT, grade 5: 0
[1]; oral daily 32 mg (n = 3)
  Total number of patients with DLT at each dosage: 0
  patients with DLT, grade 1: 0
  patients with DLT, grade 2: 0
  patients with DLT, grade 3, number (%): 0
  patients with DLT, grade 4, number (%): 0
  patients with DLT, grade 5: 0
[1]; oral daily 48 mg (n = 3)
  Total number of patients with DLT at each dosage: 0
  patients with DLT, grade 1: 0
  patients with DLT, grade 2: 0
  patients with DLT, grade 3, number (%): 0
  patients with DLT, grade 4, number (%): 0
  patients with DLT, grade 5: 0
[1]; oral daily 64 mg (n = 15)
  Total number of patients with DLT at each dosage: 1
  patients with DLT, grade 1: 0
  patients with DLT, grade 2: 0
  patients with DLT, grade 3, number (%): 0
  patients with DLT, grade 4, number (%): 1 (6.7)
  patients with DLT, grade 5: 0
[1]; [3]
  Total number of patients with DLT at each dosage: 2
  patients with DLT, grade 1: 0
  patients with DLT, grade 2: 0
  patients with DLT, grade 3, number (%): 1 (16.7)
  patients with DLT, grade 4, number (%): 1 (16.7)
  patients with DLT, grade 5: 0
[1]; oral daily 96 mg (n = 6)
  Total number of patients with DLT at each dosage: 1
  patients with DLT, grade 1: 0
  patients with DLT, grade 2: 0
  patients with DLT, grade 3, number (%): 1 (16.7)
  patients with DLT, grade 4, number (%): 0
  patients with DLT, grade 5: 0
CYP3A4
  time-dependent inhibition of CYP3A4: time-dependent inhibitor
[2]
  induction of CYP1A2: inducer
P-glycoprotein
  inhibition of P-glycoprotein: inhibitor
PLK2
  IC50: > 50000 nM
FGFR2
  IC50: < 100 nM
Ros
  IC50: < 100 nM
AurB
  IC50: < 100 nM
